Measurements from patent US6645976B1 (Eli Lilly and Company, priority 1994, dated 2003).
pIC50: −log10 of the molar value.

Tested on: not given
Assay: not given
Conditions: not given

melting point | Molecule
119 to 121 °C | CCOC(=O)COc1ccn2c(Cc3ccccc3-c3ccccc3)c(CC)c(C(=O)C(N)=O)c2c1 [Compound 68b, 2-(7-(Carboethoxymethyloxy)-2-ethyl-3-(o-phenylbenzyl)indolizin-1-yl)glyoxylamide]
84 to 94 °C (dec.) | CCc1c(C(=O)C(N)=O)c2cc(OCCCCCC(=O)O)ccn2c1Cc1ccccc1-c1ccccc1

The next lines start with the molecule.

Molecule | melting point
COC(=O)COc1cccn2c(Cc3ccccc3)c(C3CC3)c(C(=O)C(N)=O)c12 [Compound 51r, 2-(3-Benzyl-8-carbomethoxymethyloxy-2-cyclopropylindolizin-1-yl)-glyoxylamide] | 186 to 188 °C
COC(=O)COc1cccn2c(CC34CC5CC(CC(C5)C3)C4)c(C)c(C(=O)C(N)=O)c12 [Compound 51p, 2-(3-(Adamant-1-ylmethyl)-8-(carbomethoxymethyloxy)-2-methylindolizin-1-yl)glyoxylamide] | 191 to 192 °C
CCc1c(C(=O)C(N)=O)c2c(OCC(=O)OC)cccn2c1Cc1cccc(C(F)(F)F)c1 [Compound 39i, (8-(Carbmethoxymethyloxy)-2-ethyl-3-(m-trifluoromethylbenzyl)indolizin-1-yl)glyoxylamide] | 136 to 137 °C
Cc1c(C(=O)C(N)=O)c2c(NCC(=O)O)cccn2c1CC1CCCCC1 [Compound 90b, 2-(8-Carboxymethylamino-3-cyclohexylmethyl-2-methyl-indolizin-1-yl)-glyoxylamide] | > 300 °C

Molecular target: T1, recombinant human secreted phospholipase A2 (Homo sapiens, UniProt P14555)
T1 sequence (P14555 21-144): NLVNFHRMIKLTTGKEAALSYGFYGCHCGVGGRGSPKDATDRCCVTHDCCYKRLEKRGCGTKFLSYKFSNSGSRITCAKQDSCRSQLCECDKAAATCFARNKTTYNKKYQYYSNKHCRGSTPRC
Assay: sPLA2 Chromogenic Assay (Assay 1)
Type: biochemical
Conditions: diheptanoyl thio-PC substrate, pH 7.5, 40° C. for 30 minutes, absorbance at 405 nanometers

pIC50 | Molecule
7.85 | CCc1c(CC(N)=O)c2c(OCC(=O)O)cccn2c1Cc1ccccc1-c1ccccc1 [Compound 22x, 2-(8-(Carboxymethyloxy)-2-ethyl-3-(o-phenylbenzyl)indolizin-1-yl)acetamide]
5.96 | CCc1c(Cc2ccccc2)c2ccc(OCCCC(=O)O)cn2c1C(=O)C(N)=O [Compound 11, (1-Benzyl-6-(3-carboxypropyloxy)-2-ethylindolizin-3-yl)glyoxylamide]
6.22 | CCOC(=O)CCCOc1ccn2c(Cc3ccccc3-c3ccccc3)c(CC)c(CC(N)=O)c2c1 [Compound 71a, 2-(7-(3-Carbethoxypropyloxy)-2-ethyl-3-(o-phenylbenzyl)indolizin-1-yl)acetamide]
7.36 | CCc1c(C(=O)C(N)=O)c2c(OCCC(=O)O)cccn2c1Cc1ccccc1-c1ccccc1 [Compound 70a, 2-(3-(Biphenyl-2-yl-methyl)-8-(carboxyethyloxy)-2-ethylindolizine-1-yl)glyoxylamide]
7.34 | CCc1c(C(=O)C(N)=O)c2c(OCC(=O)OC(C)OC(=O)OC(C)C)cccn2c1Cc1ccccc1-c1ccccc1 (stereo not shown) [Compound 59c, 2-(3-Biphenyl-2-ylmethyl-2-ethyl-8-(1-isopropyloxycarbonyloxyethoxycarbonylmethoxy)indolizin-1-yl)glyoxylamide]

More lines, now with the values behind:

Molecule | pIC50
CCc1c(C(=O)C(N)=O)c2c(OCC(=O)O)cccn2c1Cc1cccc(OC)c1 [Compound 52m, 2-(2-Ethyl-8-(carboxymethyloxy)-3-(m-methoxybenzyl)indolizine-1-yl)glyoxylamide] | 7.68
COC(=O)COc1cccn2c(Cc3cccc4ccccc34)c(C3CC3)c(C(=O)C(N)=O)c12 [Compound 57j, 2-(8-Carbomethoxymethyloxy-2-cyclopropyl-3-(1-naphthylmethyl)indlolin-1-yl)glyoxylamide] | 6.10
2-(3-(Biphenyl-2-yl-methyl)-8-(carboxymethyloxy)-2-ethylindolizine-1-yl)glyoxylamide diglycolate [Compound 59j] | 7.28
CCCCc1ccc(Cc2c(CC)c(C(=O)C(N)=O)c3c(OCC(=O)O)cccn23)cc1 [Compound 52s, 2-(3-(p-n-Butylbenzyl)-8-(carboxymethyloxy)-2-ethylindolizin-1-yl)glyoxylamide] | 7.96
CCc1c(C(=O)C(N)=O)c2c(OCC(=O)OC)cccn2c1Cc1cccs1 [Compound 51k] | 6.66
